Measurements taken from PubChem BioAssay AID220 (DTP/NCI, 2004).
Several values for one entry are separate records, joined by “and”; a condition that tells them apart may be missing. Equal entries are not always repeated. Results filed as inconclusive are left out.

System: CD8F1 mice, subcutaneous mammary adenocarcinoma, T/C%
Assay: NCI In Vivo Anticancer Drug Screen. Data for tumor model Mammary Adenocarcinoma CD8F1 (subcutaneous) in CD8F1
Conditions: higher = larger tumour
Outline: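 Ratio of treated to vehicle-control outcome, based on either survival or tumor size, in mice bearing transplantable tumors given the test compound.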

[1] = endpoint: median tumor weight (est.), dose: 50.0 mg/kg/injection, schedule: Q07DX005 (ip), vehicle: Klucel (hydroxypropylcellulose) (HPC)
[2] = endpoint: median tumor weight change, dose: 250.0 mg/kg/injection, schedule: Q01DX001 (ip), vehicle: suspension in saline
[3] = endpoint: median tumor weight change, dose: 500.0 mg/kg/injection, schedule: Q01DX001 (ip), vehicle: suspension in saline

Q: Which results are given for `C[C@]12CCC(=O)C=C1CC[C@@H]1[C@@H]2C(=O)C[C@@]2(C)[C@H]1CC[C@]2(O)C(=O)CO`?
A: T/C (endpoint: median tumor weight (est.), dose: 2.0 mg/kg/injection, schedule: Q07DX005 (ip), vehicle: Klucel (hydroxypropylcellulose) (HPC)): 68 % of control; T/C (endpoint: median tumor weight (est.), dose: 4.0 mg/kg/injection, schedule: Q07DX005 (ip), vehicle: Klucel (hydroxypropylcellulose) (HPC)): 91 % of control; T/C (endpoint: median tumor weight (est.), dose: 8.0 mg/kg/injection, schedule: Q07DX005 (ip), vehicle: Klucel (hydroxypropylcellulose) (HPC)): 97 % of control; T/C (endpoint: median tumor weight (est.), dose: 16.0 mg/kg/injection, schedule: Q07DX005 (ip), vehicle: Klucel (hydroxypropylcellulose) (HPC)): 71 % of control; T/C (endpoint: median tumor weight (est.), dose: 25.0 mg/kg/injection, schedule: Q07DX005 (ip), vehicle: Klucel (hydroxypropylcellulose) (HPC)): 80 % of control; T/C [1]: 67 % of control; T/C (endpoint: median tumor weight (est.), dose: 200.0 mg/kg/injection, schedule: Q07DX005 (ip), vehicle: Klucel (hydroxypropylcellulose) (HPC)): 35 % of control and 58 % of control; T/C (endpoint: median tumor weight change, dose: 500.0 mg/kg/injection, schedule: Q01DX001 (ip), vehicle: Klucel (hydroxypropylcellulose) (HPC)): 46 % of control and 64 % of control; T/C (endpoint: median tumor weight change, dose: 1000.0 mg/kg/injection, schedule: Q01DX001 (ip), vehicle: Klucel (hydroxypropylcellulose) (HPC)): 33 % of control and 49 % of control; T/C (endpoint: median tumor weight change, dose: 2000.0 mg/kg/injection, schedule: Q01DX001 (ip), vehicle: Klucel (hydroxypropylcellulose) (HPC)): 24 % of control and 44 % of control; T/C (endpoint: median tumor weight change, dose: 4000.0 mg/kg/injection, schedule: Q01DX001 (ip), vehicle: Klucel (hydroxypropylcellulose) (HPC)): -18 % of control

Q: `Nc1c(Cl)c(Cl)nc(C(=O)O)c1Cl` was tested. Which T/C (endpoint: mean tumor weight, dose: 6.25 mg/kg/injection, schedule: Q01DX015 (ip), vehicle: saline) did it give?
A: 114 % of control

Q: And the T/C (endpoint: mean tumor weight, dose: 6.25 mg/kg/injection, schedule: Q07DX007 (ip), vehicle: saline)?
A: 94 % of control

Q: And the T/C (endpoint: mean tumor weight, dose: 12.5 mg/kg/injection, schedule: Q01DX015 (ip), vehicle: saline)?
A: 102 % of control

Q: What about the T/C (endpoint: mean tumor weight, dose: 12.5 mg/kg/injection, schedule: Q07DX007 (ip), vehicle: saline) of the same compound?
A: 102 % of control

Q: And the T/C (endpoint: mean tumor weight, dose: 25.0 mg/kg/injection, schedule: Q01DX015 (ip), vehicle: saline)?
A: 124 % of control

Q: What about the T/C (endpoint: mean tumor weight, dose: 25.0 mg/kg/injection, schedule: Q07DX007 (ip), vehicle: saline) of the same compound?
A: 83 % of control

Q: And the T/C (endpoint: mean tumor weight, dose: 200.0 mg/kg/injection, schedule: Q07DX006 (ip), vehicle: saline)?
A: 64 % of control

Q: What about the T/C (endpoint: mean tumor weight, dose: 300.0 mg/kg/injection, schedule: Q07DX006 (ip), vehicle: saline) of the same compound?
A: 168 % of control

Q: What does the source list for `O=C(O)C(CSC(c1ccccc1)(c1ccccc1)c1ccccc1)N=Cc1cccs1` (stereo not drawn)?
A: T/C (endpoint: median tumor weight change, dose: 62.5 mg/kg/injection, schedule: Q01DX001 (ip), vehicle: suspension in saline): 112 % of control; T/C (endpoint: median tumor weight change, dose: 125.0 mg/kg/injection, schedule: Q01DX001 (ip), vehicle: suspension in saline): 111 % of control; T/C (endpoint: median tumor weight change, dose: 250.0 mg/kg/injection, schedule: Q01DX001 (ip), vehicle: saline): 64 % of control; T/C [2]: 95 % of control

Q: Which T/C (endpoint: median tumor weight change, dose: 225.0 mg/kg/injection, schedule: Q01DX001 (ip), vehicle: distilled water + Tween-80) does the source give for `O=C(O)CCCCCCCC(=O)O` here?
A: 122 % of control

Q: And the T/C (endpoint: median tumor weight change, dose: 450.0 mg/kg/injection, schedule: Q01DX001 (ip), vehicle: distilled water + Tween-80)?
A: 82 % of control

Q: With `O=S(=O)(O)O.[NH-]C1CCCCC1[NH-].[Pt+2]` (stereo not drawn) as the compound, how does the T/C (endpoint: mean tumor weight, dose: 0.63 mg/kg/injection, schedule: Q07DX006 (ip), vehicle: water) read?
A: 54 % of control

Q: What about the T/C (endpoint: mean tumor weight, dose: 1.25 mg/kg/injection, schedule: Q07DX006 (ip), vehicle: water) of the same compound?
A: 44 % of control

Q: What about the T/C (endpoint: mean tumor weight, dose: 2.5 mg/kg/injection, schedule: Q07DX006 (ip), vehicle: water) of the same compound?
A: 4 % of control

Q: And the T/C (endpoint: mean tumor weight, dose: 5.0 mg/kg/injection, schedule: Q07DX006 (ip), vehicle: water)?
A: 1 % of control

Q: What about the T/C (endpoint: median tumor weight (est.), dose: 0.63 mg/kg/injection, schedule: Q07DX005 (ip), vehicle: dextrose) of the same compound?
A: 81 % of control

Q: What about the T/C (endpoint: median tumor weight (est.), dose: 0.63 mg/kg/injection, schedule: Q07DX005 (ip), vehicle: water) of the same compound?
A: 74 % of control

Q: What about the T/C (endpoint: median tumor weight (est.), dose: 1.25 mg/kg/injection, schedule: Q07DX005 (ip), vehicle: dextrose) of the same compound?
A: 41 % of control

Q: What about the T/C (endpoint: median tumor weight (est.), dose: 1.25 mg/kg/injection, schedule: Q07DX005 (ip), vehicle: water) of the same compound?
A: 55 % of control

Q: What about the T/C (endpoint: median tumor weight (est.), dose: 2.5 mg/kg/injection, schedule: Q07DX005 (ip), vehicle: dextrose) of the same compound?
A: 83 % of control

Q: And the T/C (endpoint: median tumor weight (est.), dose: 2.5 mg/kg/injection, schedule: Q07DX005 (ip), vehicle: water)?
A: 41 % of control

Q: And the T/C (endpoint: median tumor weight (est.), dose: 5.0 mg/kg/injection, schedule: Q07DX005 (ip), vehicle: dextrose)?
A: 33 % of control

Q: What about the T/C (endpoint: median tumor weight (est.), dose: 5.0 mg/kg/injection, schedule: Q07DX005 (ip), vehicle: water) of the same compound?
A: 3 % of control

Q: Which results are given for `N=c1ccn2c(n1)OC1C(O)C(CO)OC12` (stereo not drawn)?
A: T/C (endpoint: median tumor weight (est.), dose: 25.0 mg/kg/injection, schedule: Q07DX005 (ip), vehicle: saline): 80 % of control; T/C (endpoint: median tumor weight (est.), dose: 50.0 mg/kg/injection, schedule: Q07DX005 (ip), vehicle: saline): 159 % of control; T/C (endpoint: median tumor weight (est.), dose: 100.0 mg/kg/injection, schedule: Q07DX005 (ip), vehicle: saline): 111 % of control; T/C (endpoint: median tumor weight (est.), dose: 100.0 mg/kg/injection, schedule: Q07DX005 (ip), vehicle: suspension in saline): 81 % of control; T/C (endpoint: median tumor weight (est.), dose: 200.0 mg/kg/injection, schedule: Q07DX005 (ip), vehicle: saline): 53 % of control; T/C (endpoint: median tumor weight (est.), dose: 200.0 mg/kg/injection, schedule: Q07DX005 (ip), vehicle: suspension in saline): 109 % of control; T/C (endpoint: median tumor weight (est.), dose: 400.0 mg/kg/injection, schedule: Q07DX005 (ip), vehicle: saline): 22 % of control; T/C (endpoint: median tumor weight (est.), dose: 400.0 mg/kg/injection, schedule: Q07DX005 (ip), vehicle: suspension in saline): 70 % of control; T/C (endpoint: median tumor weight (est.), dose: 600.0 mg/kg/injection, schedule: Q07DX005 (ip), vehicle: saline): 21 % of control; T/C (endpoint: median tumor weight (est.), dose: 800.0 mg/kg/injection, schedule: Q07DX005 (ip), vehicle: suspension in saline): 52 % of control; T/C (endpoint: median tumor weight (est.), dose: 1600.0 mg/kg/injection, schedule: Q07DX005 (ip), vehicle: suspension in saline): 35 % of control

Q: How did the T/C (endpoint: median tumor weight change, dose: 3.12 mg/kg/injection, schedule: Q01DX001 (ip), vehicle: saline with Tween-80) turn out when `O=C1C=C[C@H](O)[C@@]2(CO)O[C@@H]12` was run?
A: 65 % of control

Q: And the T/C (endpoint: median tumor weight change, dose: 6.25 mg/kg/injection, schedule: Q01DX001 (ip), vehicle: saline with Tween-80)?
A: 61 % of control

Q: What about the T/C (endpoint: median tumor weight change, dose: 12.5 mg/kg/injection, schedule: Q01DX001 (ip), vehicle: saline with Tween-80) of the same compound?
A: 90 % of control

Q: For `CNC(=O)n1c(N)nc(-c2ccccc2)c1-c1ccccc1`, which T/C (endpoint: median tumor weight change, dose: 31.25 mg/kg/injection, schedule: Q01DX001 (ip), vehicle: saline with Tween-80) is on record?
A: 93 % of control

Q: And the T/C (endpoint: median tumor weight change, dose: 62.5 mg/kg/injection, schedule: Q01DX001 (ip), vehicle: saline with Tween-80)?
A: 92 % of control

Q: What about the T/C (endpoint: median tumor weight change, dose: 125.0 mg/kg/injection, schedule: Q01DX001 (ip), vehicle: saline with Tween-80) of the same compound?
A: 79 % of control

Q: For `CCC(C(=O)O)C(=O)O.[NH-]CC1CCCC[N-]1.[Pt+2]`, which T/C (endpoint: median tumor weight change, dose: 125.0 mg/kg/injection, schedule: Q01DX001 (ip), vehicle: saline) is on record?
A: 51 % of control

Q: With `Cc1cc(NS(=O)(=O)c2ccc(N=Nc3cc(N=Nc4ccc(S(=O)(=O)Nc5cc(C)nc(C)n5)cc4)c4c(NC(=O)C(Cl)Cl)cccc4c3OC(=O)C(Cl)Cl)cc2)nc(C)n1` (tested in a mixture with another compound) as the compound, how does the T/C [2] read?
A: 167 % of control

Q: And the T/C [3]?
A: 65 % of control

Q: What does the source list for `N#Cc1cn(C2OC(CO)C(O)C2O)c2ncnc(N)c12` (stereo not drawn)?
A: T/C (endpoint: median tumor weight (est.), dose: 0.12 mg/kg/injection, schedule: Q07DX005 (ip), vehicle: saline): 86 % of control; T/C (endpoint: median tumor weight (est.), dose: 0.25 mg/kg/injection, schedule: Q07DX005 (ip), vehicle: saline): 53 % of control; T/C (endpoint: median tumor weight (est.), dose: 0.5 mg/kg/injection, schedule: Q07DX005 (ip), vehicle: saline): 55 % of control; T/C (endpoint: median tumor weight (est.), dose: 1.0 mg/kg/injection, schedule: Q07DX005 (ip), vehicle: saline): 63 % of control

Q: For `COc1cc([C@@H]2c3cc4c(cc3[C@@H](OC3OC5COC(C)OC5C(O)C3O)[C@H]3COC(=O)[C@H]23)OCO4)cc(OC)c1O` (stereo partly drawn), which T/C (endpoint: median tumor weight (est.), dose: 2.0 mg/kg/injection, schedule: Q07DX005 (ip), vehicle: saline) is on record?
A: 74 % of control

Q: And the T/C (endpoint: median tumor weight (est.), dose: 4.0 mg/kg/injection, schedule: Q07DX005 (ip), vehicle: saline)?
A: 110 % of control

Q: What about the T/C (endpoint: median tumor weight (est.), dose: 8.0 mg/kg/injection, schedule: Q07DX005 (ip), vehicle: saline) of the same compound?
A: 51 % of control

Q: And the T/C (endpoint: median tumor weight (est.), dose: 16.0 mg/kg/injection, schedule: Q07DX005 (ip), vehicle: clinical formulation)?
A: 38 % of control

Q: What about the T/C (endpoint: median tumor weight (est.), dose: 16.0 mg/kg/injection, schedule: Q07DX005 (ip), vehicle: saline) of the same compound?
A: 25 % of control and 48 % of control

Q: What about the T/C (endpoint: median tumor weight (est.), dose: 32.0 mg/kg/injection, schedule: Q07DX005 (ip), vehicle: clinical formulation) of the same compound?
A: 11 % of control

Q: What about the T/C (endpoint: median tumor weight (est.), dose: 32.0 mg/kg/injection, schedule: Q07DX005 (ip), vehicle: saline) of the same compound?
A: 8 % of control and 9 % of control

Q: `Cc1cn(C2CC(F)C(CO)O2)c(=O)[nH]c1=O` (stereo not drawn) was tested. Which T/C [2] did it give?
A: 71 % of control

Q: What about the T/C [3] of the same compound?
A: 69 % of control

Q: What about the T/C (endpoint: median tumor weight change, dose: 1000.0 mg/kg/injection, schedule: Q01DX001 (ip), vehicle: suspension in saline) of the same compound?
A: 79 % of control

Q: What does the source list for `O=C(CCCN1CCC(O)(c2cccc(C(F)(F)F)c2)CC1)c1ccc(F)cc1`?
A: T/C (endpoint: median tumor weight (est.), dose: 3.12 mg/kg/injection, schedule: Q07DX005 (ip), vehicle: Klucel (hydroxypropylcellulose) (HPC)): 116 % of control and 118 % of control; T/C [1]: 55 % of control and 62 % of control
